Patent US20240287172A1, “PROTEIN BINDERS TO IRHOM2 EPITOPES” (SCIRHOM GMBH, priority 2019, published 2024)

Tested on: PMA-induced release of endogenous HB-EGF from PBMCs from patients suffering from rheumatoid arthritis
Assay: ELISA-based HB-EGF release assay, PMA-induced, PBMCs from RA-patients
Format: cell-based
Conditions: PBMC; PMA 25 ng/ml, 6 hours; chimeric antibodies (CHO) and human IgG at 1 μg/ml; Batimastat at 10 μM
Method: In brief, on day 1, Nunc black MaxiSorp® 96-well plates (Thermo Fisher Scientific, USA) were coated overnight with 100 μl per well of rat anti-human HB-EGF capture antibody (provided as part of the DuoSet ELISA kit) at 2 μg/ml TBS at 4° C. On day 2, the capture antibody solution was removed and MaxiSorp® plates were blocked with 300 μl per well of TBS, 1% BSA at room temperature for 3 hours. Meanwhile, 80,000 PBMC from patients suffering from rheumatoid arthritis (STEMCELL Technologies, Canada) cells in 80 μl of normal growth medium were seeded in each well of Greiner CELLSTAR V-bottom 96-well plates (Thermo Fisher Scientific, USA) and pre-incubated with 20 μl per well of standard growth medium supplemented with Batimastat (BB94, Abcam, UK) at 50 μM as positive control (for a final concentration of 10 μM in the resulting 100 μl sample volume), human IgG antibody (Thermo Fisher Scientific, USA) at 5 μg/ml as isotype control (for a final concentration of 1 μg/ml in the resulting 100 μl sample volume) or antibodies of the invention at 5 μg/ml (for a final concentration of 1 μg/ml in the resulting 100 μl sample volume) at 37° C., 5% CO2 for 30 minutes. […] Using an infinite M1000 (Tecan Group, Switzerland) microplate reader, the fluorescence of each well was collected at an excitation wavelength of 435 nm and an emission wavelength of 555 nm.

**Q.** How did the inhibition at 10 µM turn out when `CNC(=O)[C@H](Cc1ccccc1)NC(=O)[C@H](CC(C)C)[C@H](CSc1cccs1)C(=O)NO` [Batimastat] was run?
**A.** 102%
